Results reported in patent publication US11679098B2, “Methods for treating diseases” (UNIVERSITY OF LOUISVILLE RESEARCH FOUNDATION, INC., priority 2018, dated 2023).

How the values were obtained:
[1] = test system: IMR-90 (non-malignant lung fibroblasts); assay: MTT antiproliferative assay in IMR-90 cells; type: cell-based; conditions: Homo sapiens, 72 hrs treatment, read-out: MTT Antiproliferative Activity - IC50 (μM) IMR0 (non-malignant lung fibroblasts)
Experimental: (§1) Cell culture. A549 and IMR-90 cells were purchased from the American Type Culture Collection (ATCC), while HOP-62 and HOP-92 were obtained from the cell line repository at the National Cancer Institute. Cells were grown in the appropriate medium supplemented with 10% fetal bovine serum (FBS, Life Technologies, Grand Island, N.Y.), 62.5 μg/mL penicillin and 100 μg/mL streptomycin (Life Technologies) in a humidified incubator at 37° C. with 5% CO2. The media were as follows: Dulbecco's modified Eagle's medium (DMEM, Life Technologies) for A549 cells; RPMI 1640 (Life Technologies) for HOP-62 and HOP-92 cells; Eagle's minimal essential medium (EMEM) with Eagle's balanced salt solution (EBSS), 2 mM L-glutamine, 1500 mg/L sodium bicarbonate (Lonza, Walkersville, Md.), supplemented with 1 mM sodium pyruvate (Life Technologies) and non-essential amino acids (Life Technologies) for IMR-90 cells. Cell lines were verified with a 9-marker short tandem repeat profile and inter-species contamination test (Idexx BioResearch), although A549 cells utilized in proliferation assays were missing the Y allele at the amelogenin marker.
(§2) Cell proliferation & viability assays. Anti-proliferative activity of XB05 and other compounds was evaluated using a previously published 3-(4,5-dimethylthiazol-2-yl)-2,5-diphenyltetrazolium bromide (MTT) assay protocol (MORGAN “Tetrazolium (MTT) assay for cellular viability and activity” Methods Mol Biol. (1998) Vol. 79, pp. 179-83, which is herein incorporated by reference in its entirety, BATES et al. “Antiproliferative activity of G-rich oligonucleotides correlates with protein binding” J Biol Chem. (1999) Vol. 274, No. 37, pp. 26369-26377, which is herein incorporated by reference in its entirety, SALIPUR et al. “A novel small molecule that induces oxidative stress and selectively kills malignant cells” Free Radic Biol Med. (2014) Vol. 68, pp. 110-121, which is herein incorporated by reference in its entirety). Cells were seeded in quadruplicate wells in 96-well plates and allowed to adhere overnight. […] After 72 hrs of treatment with XB05 or other compounds, MTT (Sigma, St. Louis, Mo.) was added for 4 hrs prior to cell lysis. Each assay was performed in at least triplicate.
(§3) XB05 and related compounds were assessed for anti-proliferative activity in malignant (A549) and non-malignant (IMR-90) cells (Table A2).

[2] = DTNB assay for reactivity with free thiols, reduced glutathione; type: physicochemical
Experimental: (§4) Dithiobis-2-nitrobenzioc acid (DTNB) assay for free sulfhydryls. Similar to previously described in SALIPUR et al. “A novel small molecule that induces oxidative stress and selectively kills malignant cells” Free Radic Biol Med. (2014) Vol. 68, pp. 110-121, which is herein incorporated by reference in its entirety, reactivity with free sulfhydryls was evaluated using DTNB (Sigma). Briefly, a 4× solution of DTNB (6 mM DTNB, 50 mM sodium acetate in 100 mM Tris-HCl, pH 8.0) and solutions of 0.5 mM cysteine (Sigma) and reduced glutathione (GSH, Sigma) in 100 mM Tris-HCl, pH 8.0 were freshly prepared. The 200 mM stock solutions of XB05, other compounds, diethylmaleate (Sigma), and maleimide (Sigma) were prepared in 100% DMSO, and subsequently diluted to 2× working solutions in 100 mM Tris-HCl, pH 8.0. Thiol compounds (final concentration 0.25 mM) and thiol-reactive compounds (final concentrations 0.04-5 mM) or vehicle were added in duplicate to a 96-well plate and incubated for 30 min at 37° C. DTNB solution was then added to each well (final concentration 400 μM), and incubated at room temperature for an additional 5 min. Absorbance at 412 nm was determined by a Biotek HT Synergy plate reader (Winooski, Vt.).

[3] = test system: A549 (lung adenocarcinoma); assay: MTT antiproliferative assay in A549 cells; type: cell-based, human
Experimental: as §1, §2, §3

[4] = DTNB assay for reactivity with free thiols, cysteine; type: physicochemical
Experimental: as §4

[5] = test system: MGST1 knockout A549 cells; assay: Relative proliferation of MGST1 knockout A549 cells (CRISPR/Cas9); type: cell-based, human; conditions: two different gRNA sequences, 72 h
Experimental: FIG. 3: To assess the role of MGST1 in XB05 activity, we engineered MGST1 knockout cells using CRISPR/Cas9 technology. Western blot analysis indicating the knockout of MGST1 in A549 cells.
(§5) FIG. 4: To assess the role of MGST1 in XB05 activity, we engineered MGST1 knockout cells using CRISPR/Cas9 technology. Effect of XB05 treatment (72 h) on the relative proliferation of two independent clones of A549 cancer cells that express MGST1 (non-transfected, non-targeting gRNA) or where MGST1 was knocked out (gRNA #2, gRNA 3).
Cell proliferation & viability assays. Anti-proliferative activity of XB05 and other compounds was evaluated using a previously published 3-(4,5-dimethylthiazol-2-yl)-2,5-diphenyltetrazolium bromide (MTT) assay protocol (MORGAN “Tetrazolium (MTT) assay for cellular viability and activity” Methods Mol Biol. (1998) Vol. 79, pp. 179-83, which is herein incorporated by reference in its entirety, BATES et al. “Antiproliferative activity of G-rich oligonucleotides correlates with protein binding” J Biol Chem. (1999) Vol. 274, No. 37, pp. 26369-26377, which is herein incorporated by reference in its entirety, SALIPUR et al. “A novel small molecule that induces oxidative stress and selectively kills malignant cells” Free Radic Biol Med. (2014) Vol. 68, pp. 110-121, which is herein incorporated by reference in its entirety). […]

[6] = test system: NCI60 human tumor cell line panel; assay: NCI60 human tumor cell line screen; type: cell-based
From the text: FIG. 1: Screens to Identify the role of Microsomal glutathione S-transferase 1 (MGST1). Results from the NCI's 60 human tumor cell lines screen. The COMPARE algorithm was used to probe microarray results from the cell lines to identify gene expression that correlated with this unusual pattern of growth inhibition.
NCI60 human tumor cell line screen of XB05 activity. To further investigate the initial observations of XB05's anti-cancer activities, XB05 was submitted to the National Cancer Institute's Developmental Therapeutics Program for testing with the NCI60 human tumor cell line panel. This panel consists of 60 well-characterized human tumor cell lines (SHOEMAKER “The NCI60 human tumour cell line anticancer drug screen” Nat Rev Cancer (2006) Vol. 6, No. 10, Vol. 813-823, which is herein incorporated by reference in its entirety).

[7] = test system: A549 cells (non-transfected, non-targeting gRNA); assay: Relative proliferation of A549 cells that express MGST1 (non-transfected, non-targeting gRNA); type: cell-based, human; conditions: 72 h, non-transfected A549 and non-targeting gRNA
Experimental: as §5
Cell proliferation & viability assays. Anti-proliferative activity of XB05 and other compounds was evaluated using a previously published 3-(4,5-dimethylthiazol-2-yl)-2,5-diphenyltetrazolium bromide (MTT) assay protocol (MORGAN “Tetrazolium (MTT) assay for cellular viability and activity” Methods Mol Biol. (1998) Vol. 79, pp. 179-83, which is herein incorporated by reference in its entirety, BATES et al. “Antiproliferative activity of G-rich oligonucleotides correlates with protein binding” J Biol Chem. (1999) Vol. 274, No. 37, pp. 26369-26377, which is herein incorporated by reference in its entirety, SALIPUR et al. “A novel small molecule that induces oxidative stress and selectively kills malignant cells” Free Radic Biol Med. (2014) Vol. 68, pp. 110-121, which is herein incorporated by reference in its entirety). Cells were seeded in quadruplicate wells in 96-well plates and allowed to adhere overnight. […] After 72 hrs of treatment with XB05 or other compounds, MTT (Sigma, St. Louis, Mo.) was added for 4 hrs prior to cell lysis. […]

With `CCCCCC(O)C#CC(F)(F)Br` (stereo not drawn) [XB05] the IC50 [1] was 2.5 µM, the “DTNB Reactivity with Thiols - DTNB assay with Glutathione” value ([2]; 0.25 mM reduced glutathione, 30 min at 37° C., pH 8.0) was “ND (DTNB ND - not detected at concentrations up to 2.5 mM)” and the “reactivity with thiol of glutathione” value ([2]; FIG. 6) was “not reactive”. The “IC30 value in A549 cells” value [3] was 1000 nM, the IC50 ([3]; Homo sapiens, 72 hrs treatment, MTT) was 0.4 µM and the “DTNB Reactivity with Thiols - DTNB assay with Cysteine” value ([4]; 0.25 mM cysteine, 30 min at 37° C., pH 8.0) was “ND (DTNB ND - not detected at concentrations up to 2.5 mM)”. For the same compound, the “reactivity with thiol of cysteine” value ([4]; FIG. 5) was “not reactive”, the “effect on cell proliferation after knockout of MGST1” value [5] was “reversed” and the “activity in the NCI60 screen” value ([6]; 60 human tumor cell lines) was “activity against about one-third of cancer cells”. For the same compound, the “fold less sensitive (other cell lines in the screen)” value ([6]; less active cell lines versus sensitive cell lines) was “up to 1000 fold”, the “cell proliferation, % of vehicle” value ([7]; 1 μM) was “approximately 20%” and the “cell proliferation, % of vehicle” value ([7]; 2 μM) was ~5%.
